Positions of bridges follow the written chain, without caps; N, C: chain ends. Non-standard residues stand in square brackets, D forms with d. Residues, ends and D or L forms follow the SMILES beside them. ξ: configuration not given here. Cit = NC(=O)NCCC[C@H](N)C(=O)O; Gly(cPr) = N[C@H](C(=O)O)C1CC1; Ile(3ξ) = CCC(C)[C@H](N)C(=O)O; Ahp(2) = CCCCC[C@H](N)C(=O)O; NMeNle = CCCC[C@H](NC)C(=O)O; Tle = CC(C)(C)[C@H](N)C(=O)O; NHexGly = CCCCCCNCC(=O)O; Nle = CCCC[C@H](N)C(=O)O

This experiment concerns the target T1, mouse VISTA (mVISTA) (Mus musculus, UniProt Q9D659).
T1 construct: expressed in transfected cells; host or cells: Human embryonic kidney 293T cells
T1 sequence (Q9D659 33-308): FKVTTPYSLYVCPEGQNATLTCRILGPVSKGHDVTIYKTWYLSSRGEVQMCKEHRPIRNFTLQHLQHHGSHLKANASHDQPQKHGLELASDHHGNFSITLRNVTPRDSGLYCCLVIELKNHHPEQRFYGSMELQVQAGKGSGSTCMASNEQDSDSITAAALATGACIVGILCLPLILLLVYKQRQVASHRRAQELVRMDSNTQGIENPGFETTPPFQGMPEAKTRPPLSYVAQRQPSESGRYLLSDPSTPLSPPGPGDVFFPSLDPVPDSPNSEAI
Put plainly: Cell-Based Binding High-Content Assay For mVISTA (HC CBA mVISTA). The note with it: read-out: HC CBA mVISTA IC50. The gist of the method:
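mVISTA-293T, 4,000 cells/well; cpd ± washout step; biotin-peptide 2 nM final, 30 min RT; SA-Alexa 647 30 min; formaldehyde/Hoechst fix; HCS imaging; 4PL IC50.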

For the molecule `CCCCCCN1CC(=O)N[C@@H](Cc2ccc(O)cc2)C(=O)N[C@@H](CCCC)C(=O)N[C@@H](CC(N)=O)C(=O)N[C@@H](CCCNC(=N)N)C(=O)N(C)[C@@H](CCCC)C(=O)N[C@@H](CCCCC)C(=O)N2CCC[C@H]2C(=O)N[C@@H](C(C)(C)C)C(=O)N[C@@H](CO)C(=O)N[C@H](C(=O)N[C@@H](CC(=O)O)C(N)=O)CSCC(=O)N[C@@H](Cc2ccccc2)C(=O)N[C@@H](Cc2c[nH]c3ccccc23)C(=O)N[C@@H](CC(=O)O)C1=O` [Example 1378] ({CH2CO}-FWD[NHexGly]Y[Nle]NR[NMeNle][Ahp(2)]P[Tle]SCD-NH2; thioether N-14), the half-maximal inhibitory concentration (IC50) (as a rule, the concentration at which inhibition is half-maximal) is 41.3 nM. To `CCCCCCN1CC(=O)N[C@@H](Cc2ccc(O)cc2)C(=O)N[C@@H](CCCC)C(=O)N[C@@H](CC(N)=O)C(=O)N[C@@H](CCCNC(=N)N)C(=O)N(C)[C@@H](CCCC)C(=O)N[C@@H](CCCCC)C(=O)N2CCC[C@H]2C(=O)N[C@@H](C(C)C)C(=O)N[C@@H](CC(=O)O)C(=O)N[C@H](C(=O)NCC(=O)O)CSCC(=O)N[C@@H](Cc2ccccc2)C(=O)N[C@@H](Cc2c[nH]c3ccccc23)C(=O)N[C@@H](CC(=O)O)C1=O` [Example 1379] ({CH2CO}-FWD[NHexGly]Y[Nle]NR[NMeNle][Ahp(2)]PVDCG-OH; thioether N-14) belongs 5.9 nM. To `CCCCCCN1CC(=O)N[C@@H](Cc2ccc(O)cc2)C(=O)N[C@@H](CCCC)C(=O)N[C@@H](CC(N)=O)C(=O)N[C@@H](CCCNC(=N)N)C(=O)N(C)[C@@H](CCCC)C(=O)N[C@@H](CCCCC)C(=O)N2CCC[C@H]2C(=O)N[C@@H](C(C)C)C(=O)N[C@@H](CCCNC(=N)N)C(=O)N[C@H](C(=O)NCC(=O)O)CSCC(=O)N[C@@H](Cc2ccccc2)C(=O)N[C@@H](Cc2c[nH]c3ccccc23)C(=O)N[C@@H](CC(=O)O)C1=O` [Example 1380] ({CH2CO}-FWD[NHexGly]Y[Nle]NR[NMeNle][Ahp(2)]PVRCG-OH; thioether N-14) belongs 12.1 nM; to `CCCCCCN1CC(=O)N[C@@H](Cc2ccc(O)cc2)C(=O)N[C@@H](CCCC)C(=O)N[C@@H](CC(N)=O)C(=O)N[C@@H](CCCNC(=N)N)C(=O)N(C)[C@@H](CCCC)C(=O)N[C@@H](CCCCC)C(=O)N2CCC[C@H]2C(=O)N[C@@H](C(C)C)C(=O)N[C@@H](CC(N)=O)C(=O)N[C@H](C(=O)NCC(=O)O)CSCC(=O)N[C@@H](Cc2ccccc2)C(=O)N[C@@H](Cc2c[nH]c3ccccc23)C(=O)N[C@@H](CC(=O)O)C1=O` [Example 1381] ({CH2CO}-FWD[NHexGly]Y[Nle]NR[NMeNle][Ahp(2)]PVNCG-OH; thioether N-14), 20.3 nM; to `CCCCCCN1CC(=O)N[C@@H](Cc2ccc(O)cc2)C(=O)N[C@@H](CCCC)C(=O)N[C@@H](CC(N)=O)C(=O)N[C@@H](CCCNC(=N)N)C(=O)N(C)[C@@H](CCCC)C(=O)N[C@@H](CCCCC)C(=O)N2CCC[C@H]2C(=O)N[C@@H](C(C)C)C(=O)N[C@@H](CO)C(=O)N[C@H](C(=O)NCC(=O)O)CSCC(=O)N[C@@H](Cc2ccccc2)C(=O)N[C@@H](Cc2c[nH]c3ccccc23)C(=O)N[C@@H](CC(=O)O)C1=O` [Example 1382] ({CH2CO}-FWD[NHexGly]Y[Nle]NR[NMeNle][Ahp(2)]PVSCG-OH; thioether N-14), 17.2 nM. To `CCCCCCN1CC(=O)N[C@@H](Cc2ccc(O)cc2)C(=O)N[C@@H](CCCC)C(=O)N[C@@H](CC(N)=O)C(=O)N[C@@H](CCCNC(=N)N)C(=O)N(C)[C@@H](CCCC)C(=O)N[C@@H](CCCCC)C(=O)N2CCC[C@H]2C(=O)N[C@@H](C(C)C)C(=O)N[C@@H](C(C)C)C(=O)N[C@H](C(=O)NCC(=O)O)CSCC(=O)N[C@@H](Cc2ccccc2)C(=O)N[C@@H](Cc2c[nH]c3ccccc23)C(=O)N[C@@H](CC(=O)O)C1=O` [Example 1383] ({CH2CO}-FWD[NHexGly]Y[Nle]NR[NMeNle][Ahp(2)]PVVCG-OH; thioether N-14) belongs 16.9 nM; to `CCCCCCN1CC(=O)N[C@@H](Cc2ccc(O)cc2)C(=O)N[C@@H](CCCCC)C(=O)N[C@@H](CC(N)=O)C(=O)N[C@@H](CCCNC(=N)N)C(=O)N(C)[C@@H](CCCC)C(=O)N[C@@H](CCCCC)C(=O)N2CCC[C@H]2C(=O)N[C@@H](C(C)C)C(=O)N[C@@H](CO)C(=O)N[C@H](C(=O)NCC(=O)O)CSCC(=O)N[C@@H](Cc2ccccc2)C(=O)N[C@@H](Cc2c[nH]c3ccccc23)C(=O)N[C@@H](CC(=O)O)C1=O` [Example 1384] ({CH2CO}-FWD[NHexGly]Y[Ahp(2)]NR[NMeNle][Ahp(2)]PVSCG-OH; thioether N-14), 10.9 nM; to `CCCCCCN1CC(=O)N[C@@H](Cc2ccc(O)cc2)C(=O)N[C@@H](CCCCC)C(=O)N[C@@H](CC(N)=O)C(=O)N[C@@H](CCCNC(=N)N)C(=O)N(C)[C@@H](CCCC)C(=O)N[C@@H](CCCCC)C(=O)N2CCC[C@H]2C(=O)N[C@@H](C(C)C)C(=O)N[C@@H](C(C)C)C(=O)N[C@H](C(=O)NCC(=O)O)CSCC(=O)N[C@@H](Cc2ccccc2)C(=O)N[C@@H](Cc2c[nH]c3ccccc23)C(=O)N[C@@H](CC(=O)O)C1=O` [Example 1385] ({CH2CO}-FWD[NHexGly]Y[Ahp(2)]NR[NMeNle][Ahp(2)]PVVCG-OH; thioether N-14), 10.5 nM. For `CCCCCCN1CC(=O)N[C@@H](Cc2ccc(O)cc2)C(=O)N[C@@H](CCCCC)C(=O)N[C@@H](CC(N)=O)C(=O)N[C@@H](CCCNC(=N)N)C(=O)N(C)[C@@H](CCCC)C(=O)N[C@@H](CCCCC)C(=O)N2CCC[C@H]2C(=O)N[C@@H](C(C)C)C(=O)N[C@@H](CC(=O)O)C(=O)N[C@H](C(=O)NCC(=O)O)CSCC(=O)N[C@@H](Cc2ccccc2)C(=O)N[C@@H](Cc2c[nH]c3ccccc23)C(=O)N[C@@H](CC(=O)O)C1=O` [Example 1386] ({CH2CO}-FWD[NHexGly]Y[Ahp(2)]NR[NMeNle][Ahp(2)]PVDCG-OH; thioether N-14), the IC50 is 8.8 nM.

With `CCCCCCN1CC(=O)N[C@@H](Cc2ccc(O)cc2)C(=O)N[C@@H](CCCC)C(=O)N[C@@H](CC(N)=O)C(=O)N[C@@H](CCCNC(N)=O)C(=O)N(C)[C@@H](CCCC)C(=O)N[C@@H](CCCCC)C(=O)N2CCC[C@H]2C(=O)N[C@@H](C(C)C)C(=O)N[C@@H](CC(=O)O)C(=O)N[C@H](C(=O)NCC(=O)O)CSCC(=O)N[C@@H](Cc2ccccc2)C(=O)N[C@@H](Cc2c[nH]c3ccccc23)C(=O)N[C@@H](CC(=O)O)C1=O` [Example 1387] ({CH2CO}-FWD[NHexGly]Y[Nle]N[Cit][NMeNle][Ahp(2)]PVDCG-OH; thioether N-14), the IC50 amounted to 5.3 nM.

As for `CCCCCCN1CC(=O)N[C@@H](Cc2ccc(O)cc2)C(=O)N[C@@H](CCCC)C(=O)N[C@@H](CC(N)=O)C(=O)N[C@@H](CCCNC(N)=O)C(=O)N(C)[C@@H](CCCC)C(=O)N[C@@H](CCCCC)C(=O)N2CCC[C@H]2C(=O)N[C@@H](C(C)CC)C(=O)N[C@@H](CO)C(=O)N[C@H](C(=O)NCC(N)=O)CSCC(=O)N[C@@H](Cc2ccccc2)C(=O)N[C@@H](Cc2c[nH]c3ccccc23)C(=O)N[C@@H](CC(=O)O)C1=O` (stereo partly drawn) [Example 1388] ({CH2CO}-FWD[NHexGly]Y[Nle]N[Cit][NMeNle][Ahp(2)]P[Ile(3ξ)]SCG-NH2; thioether N-14), the IC50 came to 16.4 nM. For the molecule `CCCCCCN1CC(=O)N[C@@H](Cc2ccc(O)cc2)C(=O)N[C@@H](CCCC)C(=O)N[C@@H](CC(N)=O)C(=O)N[C@@H](CCCNC(=N)N)C(=O)N(C)[C@@H](CCCC)C(=O)N[C@@H](CCCCC)C(=O)N2CCC[C@H]2C(=O)N[C@@H](C2CC2)C(=O)N[C@@H](CO)C(=O)N[C@H](C(=O)NCC(N)=O)CSCC(=O)N[C@@H](Cc2ccccc2)C(=O)N[C@@H](Cc2c[nH]c3ccccc23)C(=O)N[C@@H](CC(=O)O)C1=O` [Example 1389] ({CH2CO}-FWD[NHexGly]Y[Nle]NR[NMeNle][Ahp(2)]P[Gly(cPr)]SCG-NH2; thioether N-14), the IC50 is 34.4 nM. The figure for `CCCCCCN1CC(=O)N[C@@H](Cc2ccc(O)cc2)C(=O)N[C@@H](CCCC)C(=O)N[C@@H](CC(N)=O)C(=O)N[C@@H](CCCNC(N)=O)C(=O)N(C)[C@@H](CCCC)C(=O)N[C@@H](CCCCC)C(=O)N2CCC[C@H]2C(=O)N[C@@H](C(C)(C)C)C(=O)N[C@@H](CO)C(=O)N[C@H](C(=O)NCC(N)=O)CSCC(=O)N[C@@H](Cc2ccccc2)C(=O)N[C@@H](Cc2c[nH]c3ccccc23)C(=O)N[C@@H](CC(=O)O)C1=O` [Example 1390] ({CH2CO}-FWD[NHexGly]Y[Nle]N[Cit][NMeNle][Ahp(2)]P[Tle]SCG-NH2; thioether N-14) is 25.2 nM; for `CCCCCCN1CC(=O)N[C@@H](Cc2ccc(O)cc2)C(=O)N[C@@H](CCCC)C(=O)N[C@@H](CC(N)=O)C(=O)N[C@@H](CCCNC(=N)N)C(=O)N(C)[C@@H](CCCC)C(=O)N[C@@H](CCCCC)C(=O)N2CCC[C@H]2C(=O)N[C@@H](C(C)(C)C)C(=O)N[C@@H](CO)C(=O)N[C@H](C(=O)NCC(N)=O)CSCC(=O)N[C@@H](Cc2ccccc2)C(=O)N[C@@H](Cc2c[nH]c3ccccc23)C(=O)N[C@@H](CC(=O)O)C1=O` [Example 1391] ({CH2CO}-FWD[NHexGly]Y[Nle]NR[NMeNle][Ahp(2)]P[Tle]SCG-NH2; thioether N-14) it is 36.3 nM. The figure for `CCCCCCN1CC(=O)N[C@@H](Cc2ccc(O)cc2)C(=O)N[C@@H](CCCC)C(=O)N[C@@H](CC(=O)O)C(=O)N[C@@H](CCCNC(=N)N)C(=O)N(C)[C@@H](CCCC)C(=O)N[C@@H](CCCCC)C(=O)N2CCC[C@H]2C(=O)N[C@@H](C(C)(C)C)C(=O)N[C@@H](CC(=O)O)C(=O)N[C@H](C(=O)NCC(N)=O)CSCC(=O)N[C@@H](Cc2ccccc2)C(=O)N[C@@H](Cc2c[nH]c3ccccc23)C(=O)N[C@@H](CC(=O)O)C1=O` [Example 1392] ({CH2CO}-FWD[NHexGly]Y[Nle]DR[NMeNle][Ahp(2)]P[Tle]DCG-NH2; thioether N-14) is 38.3 nM.

The values are drawn from patent US20240218022A1, “ANTI-VISTA MACROCYCLIC PEPTIDES AND COMPOSITIONS” (BRISTOL-MYERS SQUIBB COMPANY, priority 2022, published 2024).
